Data taken from US20250382280A1, “PYRAZOLE DERIVATIVES FOR THE INHIBITION OF PHAGOCYTOSIS” (Canadian Blood Services, priority 2022, published 2025).
Like-named read-outs stand apart in the source and are kept apart here.

System: phagocytosis of anti-D-opsonized Rh(D+) red cells by monocytes
Assay: monocyte monolayer assay (MMA), in vitro phagocytosis assay
Format: cell-based, human
Design: key to Phagocytic index (PI): number of phagocytosed RBCs per 100 monocytes
Conditions: for inhibition at 5 µM / IC50 / EC50: Homo sapiens, Monocyte; for Phagocytic index (PI): PI = (# of phagocytic red blood cells)/(300 monocytes) * 100; for IC50 / EC50: dose-inhibitory response; for IC50: 0.5-100 μM, read-out: IC50 for inhibition of phagocytosis
Procedure: The MMA to screen compounds for their ability to inhibit phagocytosis was performed as previously described (Purohit, M. K. et al., Bioorg. Med. Chem. Lett. 2013; 23:2324-7; and Purohit, M. K. et al., Bioorg. Med. Chem. 2014; 22:2739-52.). Briefly, Mononuclear cells (PBMCs) were layered onto chamber slides and monocytes purified by adherence after 1 hr at 37° C. with 5% CO2. Drugs were solubilized in 100% DMSO and then diluted in Roswell Park Memorial Institute (RPMI) to the final concentration of 5 μM, as previously reported (8,9). Corresponding dimethyl sulfoxide (DMSO) volumes in RPMI medium were used as a control. After one hour, indicator Rh-positive red cells opsonized with anti-RhD were added to the chamber slides and then further incubated for 2 hours before fixing and counting phagocytosed red blood cells (RBCs) using phase-contrast microscopy. As a positive control for inhibition, Intravenous immunoglobulin (IVIg) was used, known to inhibit phagocytosis due to blocking of FcγRs. The phagocytosis index (PI) was determined as the number of phagocytosed RBCs in 100 monocytes. The percent inhibition of phagocytosis was determined by comparing the PI in each treated sample to the PI in the untreated sample, which was determined by normalizing the PI concentration in each treated sample (phagocytosis of opsonized RBCs with vehicle only, representing 100 percent phagocytosis.
Concentrations included 100 μM, 50 μM, 25 μM, 10 μM, 5 μM, 2.5 μM, 1 μM, and 0.5 μM.
The 80 selected pyrazole core compounds were screened using a concentration of 5 μM in the in vitro phagocytosis assay, referred to as the monocyte monolayer assay (MMA). Compounds were compared to a standard intravenous immunoglobulin (IVIg) at a concentration of 1 mg/mL.

[1] = 5 μM compound, screening of the 80 compounds, read-out: Average inhibition (% ± standard deviation)
[2] = 5 μM, anti-D-opsonized Rh(D+) red cells, read-out: Inhibition percentage

Row | SMILES | inhibition at 5 µM [1] | further results
1 | Cc1cc(C)n(C(=O)COc2ccccc2C)n1 [KB-141] | 36 ± 9.37% | –
2 | CN(C)C(=O)c1cn(-c2ccccc2)nc1-c1ccccc1 [KB-132] | -9 ± 3.47% | –
3 | COc1cc(S(=O)(=O)n2cccn2)c(OC)cc1Cl [KB-176] | -10 ± 7.06% | –
4 | Cc1c(NC(=O)CSc2nc3c(c(=O)[nH]2)CCC3)c(=O)n(-c2ccccc2)n1C [KB-186] | 55 ± 8.43% | Phagocytic index (PI) (5 μM): 28; inhibition at 5 µM [2]: 55%
5 | COc1ccc(C2=NN(C(C)=O)C(c3ccco3)C2)cc1OC (stereo not drawn) [KB-154] | 2 ± 5.19% | –
6 | CCOC(=O)c1c(N)nn(C(=O)CC)c1-c1ccccc1 [KB-156] | 2 ± 6.64% | –
7 | COc1ccc(-c2cc(C(=O)O)nn2C2CCS(=O)(=O)C2)cc1 (stereo not drawn) [KB-185] | -3 ± 3.6% | –
8 | Cc1nn(-c2ccccc2)c2sc(C(=O)NCCO)cc12 [KB-136] | -4 ± 1.82% | –
9 | Cn1cc(Cl)c(C(=O)Nc2ccc(F)cc2F)n1 [KB-148] | 28 ± 9.62% | –
10 | Cc1n[nH]c(C)c1Sc1ccc(Cl)cc1 [KB-138] | 38 ± 6.56% | –
11 | CCn1ncc(Br)c1C(=O)NC1CCCCC1 [KB-150] | 24 ± 8.58% | –
12 | O=C1NC(=O)C2C1C(c1ccc(O)cc1)NN2Cc1ccccc1 (stereo not drawn) [KB-157] | 3 ± 9.96% | –
13 | COCc1nnc(NC(=O)c2cnn(C)c2-n2cccc2)s1 [KB-207] | 14 ± 1.86% | –
14 | CCOC(=O)c1cnn(C)c1NC(=O)C(CC)Sc1cc(C)ncn1 (stereo not drawn) [KB-184] | 7 ± 2.92% | –
15 | COc1ccc(CNC(=O)c2c(Cl)cnn2C)cc1OC [KB-178] | 53 ± 5.11% | Phagocytic index (PI) (5 μM): 29; inhibition at 5 µM [2]: 53%
16 | Cc1c(NC(=O)C2CCN(S(=O)(=O)c3cccs3)CC2)c(=O)n(-c2ccccc2)n1C [KB-145] | 4 ± 0.06% | –
17 | N#CCCn1cc(C(N)=O)c(-c2cccc(Cl)c2)n1 [KB-164] | -3 ± 9.7% | –
18 | Cn1ncc(I)c1C(=O)Nc1cccc2ccccc12 [KB-160] | -2 ± 5.32% | –
19 | CCOC(=O)c1cnn(-c2ncnc3c2cnn3-c2ccc(F)cc2)c1N [KB-199] | 40 ± 5.46% | Phagocytic index (PI) (5 μM): 40; inhibition at 5 µM [2]: 40%
20 | O=C(Nc1nccs1)c1cnn(-c2ccccc2)c1-n1cccc1 [KB-210] | 69 ± 5.32% | Phagocytic index (PI) (5 μM): 11; IC50: 22.1 µM; inhibition at 5 µM [2]: 69%; EC50: > 10 µM
21 | CC(C)c1cc(C(=O)Nc2nnc(C3CCCO3)s2)n(-c2ccccc2)n1 (stereo not drawn) [KB-206] | 50 ± 5.46% | Phagocytic index (PI) (5 μM): 18; inhibition at 5 µM [2]: 50%

Row | SMILES | inhibition at 5 µM [1] | further results
22 | CCc1ccc(C2CC(c3ccccc3)=NN2S(C)(=O)=O)cc1 (stereo not drawn) [KB-155] | 8 ± 9.35% | –
23 | Cc1cc(=O)n(CCN2CCOCC2)c2c1c(C)nn2-c1ccccc1 [KB-183] | -28 ± 9.96% | –
24 | COc1ccccc1-c1cc(C(=O)Nc2c(C)n(C)n(-c3ccccc3)c2=O)no1 [KB-200] | 31 ± 1.84% | –
25 | Nc1c(C(=O)O)cnn1-c1ccc(F)cc1F [KB-209] | 50 ± 1.02% | Phagocytic index (PI) (5 μM): 18; inhibition at 5 µM [2]: 50%
26 | Cc1nn(C)cc1S(=O)(=O)NCc1ccccc1Cl [KB-180] | -42 ± 8.81% | –
27 | CCn1nccc1C1CCCN1S(=O)(=O)c1cc(C)c(C)cc1C (stereo not drawn) [KB-198] | 75 ± 4.76% | Phagocytic index (PI) (5 μM): 9; IC50: 8.43 µM; inhibition at 5 µM [2]: 75%; EC50: > 10 µM
28 | Cc1ccc2nc(-c3ccc4c(c3)OCO4)cc(C(=O)Nc3c(C)n(C)n(-c4ccccc4)c3=O)c2c1 [KB-163] | -30 ± 1.77% | –
29 | CC(CCc1ccccc1)NC(=O)c1cnn(C)c1-n1cccc1 (stereo not drawn) [KB-205] | 47 ± 0.98% | Phagocytic index (PI) (5 μM): 19; inhibition at 5 µM [2]: 47%
30 | Cc1cc(-c2ccco2)n(-c2ccccc2)n1 [KB-135] | 18 ± 2.7% | –
31 | CCOC(=O)C1=NNC2C(=O)N(CC)C(=O)C12 (stereo not drawn) [KB-133] | 24 ± 8.98% | –
32 | COc1ccccc1-n1nc(C(C)=O)c(C(C)=O)c1C [KB-187] | -16 ± 9.33% | –
33 | N#CCCn1cc(C(=O)Nc2nccs2)c(-c2ccc3c(c2)OCCO3)n1 [KB-165] | 33 ± 5.3% | –
34 | Cc1c(Nc2ncnc3c2cnn3-c2ccccc2)c(=O)n(-c2ccccc2)n1C [KB-149] | 0% | –
35 | COc1ccc(NC(=O)c2cn(CCC#N)nc2-c2cccs2)cc1 [KB-166] | 17 ± 3.91% | –
36 | Cc1cc(C)n(C(=O)c2ccoc2C)n1 [KB-142] | 11 ± 6.51% | –
37 | Cc1nn(C(=O)N(C)C)c(C)c1CN1C(=O)c2ccccc2C1=O [KB-174] | 39 ± 9.53% | –
38 | CSc1nc2ccc(S(=O)(=O)Nc3c(C)n(C)n(-c4ccccc4)c3=O)cc2s1 [KB-170] | -13 ± 4.31% | –
39 | CCOc1ccc(NC(=O)c2cnn(-c3ccccc3)c2NC(=O)c2ccco2)cc1 [KB-140] | 31 ± 7.84% | –
40 | Cc1cc(NC(=O)c2cnn3c2NC(c2ccco2)CC3C(F)(F)F)n(-c2ccccc2)n1 (stereo not drawn) [KB-168] | 23 ± 3.86% | –
41 | COc1ccc(-c2cc(C(=O)NCCc3c[nH]c4ccccc34)[nH]n2)cc1 [KB-213] | 64 ± 8.74% | Phagocytic index (PI) (5 μM): 13; inhibition at 5 µM [2]: 64%
42 | Cc1c(NC(=O)c2ccn3c(C(F)(F)F)cc(-c4ccccc4)nc23)c(=O)n(-c2ccccc2)n1C [KB-169] | 0% | –

Row | SMILES | inhibition at 5 µM [1] | further results
43 | Cc1coc(C)c1C1=NN(S(C)(=O)=O)C(c2cccs2)C1 (stereo not drawn) [KB-175] | 50 ± 1.45% | Phagocytic index (PI) (5 μM): 15; inhibition at 5 µM [2]: 50%
44 | CCOC(=O)c1c(C)nn(-c2nc(C)cc(C)n2)c1N [KB-181] | -11 ± 10.3% | Phagocytic index (PI) (5 μM): 37; inhibition at 5 µM [2]: 45%
45 | Cn1ccc(C(=O)Nc2ccc3c(c2)OCCO3)n1 [KB-182] | 55 ± 3.65% | Phagocytic index (PI) (5 μM): 28; inhibition at 5 µM [2]: 55%
46 | COc1ccc(-c2nc(-n3c(C)c(C(C)=O)c(C(C)=O)c3C)sc2C)cc1OC [KB-152] | 2 ± 8.84% | –
47 | O=c1cc(CSc2nc3ccccc3s2)[nH]c2[nH]n(-c3ccccc3)c(=O)c12 [KB-191] | -23 ± 7.85% | –
48 | Cc1cccc(OCCCc2c(C)n[nH]c2C)c1C [KB-139] | 6 ± 3.48% | –
49 | O=C(Nc1ccncc1)c1cc(C2CC2)nn1-c1ccccc1 [KB-204] | 36 ± 3.6% | –
50 | COC(=O)N1N=C(C2CCCCC2)CC1(O)C(F)(F)F (stereo not drawn) [KB-158] | 0% | –
51 | COc1ccc(S(=O)(=O)n2cccn2)cc1C(C)(C)C [KB-173] | -8 ± 8.88% | –
52 | Cc1nn(-c2ccc3nnc(C)n3n2)c2c1C(c1cccs1)CC(=O)N2 (stereo not drawn) [KB-190] | 56 ± 1.24% | Phagocytic index (PI) (5 μM): 27; inhibition at 5 µM [2]: 56%
53 | Cc1cc(C)n(S(=O)(=O)c2ccccc2)n1 [KB-137] | 10 ± 1.21% | –
54 | CCOC(=O)c1cnn(-c2nc3sc4c(c3c(=O)[nH]2)CCCC4)c1N [KB-162] | -37 ± 2.59% | –
55 | O=C(NCc1ccncc1)c1cnn(-c2ccccc2F)c1-n1cccc1 [KB-203] | 27 ± 2.72% | –
56 | Cn1ncc(Br)c1C(=O)N1CCCC1c1ccc(F)cc1 (stereo not drawn) [KB-192] | -29 ± 9.54% | –
57 | CCOC(=O)c1cnn(-c2ccccc2)c1NC(=O)CSc1nc(SC)ns1 [KB-171] | 7 ± 0.39% | –
58 | Cc1sc2ncnc(-n3ncc(C#N)c3N)c2c1C [KB-143] | 10 ± 6.87% | –
59 | FC(F)(F)c1cc(-c2cccs2)nc(-n2nc(C(F)(F)F)c3c2CCC3)n1 [KB-211] | 33 ± 2.31% | –
60 | COc1cccc(-c2cc(C(=O)Nc3cc(C)nn3-c3ccccc3)on2)c1 [KB-195] | 25 ± 6.36% | –
61 | CCn1cc(S(=O)(=O)NCCc2ccc(OC)c(OC)c2)cn1 [KB-179] | 53 ± 1.18% | Phagocytic index (PI) (5 μM): 14; inhibition at 5 µM [2]: 53%
